{"source": "patent US6683060B2", "about": "“Matrix metalloproteinase and tumor necrosis factor inhibitors” (Advanced Gene Technology Corp., priority 2002, dated 2004)", "key": {"[1]": {"system": "ES-2, COLO205, PC-3, A375, and A549 cell lines", "assay": "Proliferation/cytotoxicity assay on cancer cell lines (XTT assay)", "assay_type": "cell-based, human", "settings": "72 hours exposure, five cancer cell lines; for cellular viability (XTT assay): serially two-fold diluted from 0.258 mg/ml, data not shown", "description": "Five cancer-derived cell lines obtained from the American Type Culture Collection (ATCC) were used for the following proliferation/cytotoxicity assay. These cell lines are listed as follow:\n(§1) ES-2 is a human ovarian carcinoma. It was maintained in a modified McCoy's 5A medium (Gibco) and supplemented with 10% FBS (fetal bovine serum).\n(§2) COLO205 is a human colon cancer-derived cell line. It was maintained in a RPMI 1640 medium (Hyclone), and supplemented with 10% heat-inactivated FBS.\n(§3) PC-3 is a human prostate cancer-derived cell line. It was maintained in a Ham's F12 K medium (Gibco) and supplemented with 7% FBS.\n(§4) A375 is a human malignant melanoma-derived cell line. It was maintained in a Dulbecco's modified Eagle's medium (DMEM, Hyclone) and supplemented with 10% FBS, 4 mM L-glutamine, 4.5 g/l glucose, and 1.0 mM sodium pyruvate.\n(§5) A549 is a human lung cancer-derived cell line. It was maintained in a F12K medium (Gibco) and supplemented with 10% FBS.\nTo determine the cytotoxicity of Compound 1 or uridine on each cancer cell lines, ES-2, COLO205, PC-3, A375, and A549 cell lines were used. Each cancer cell line at a concentration of 1×10^4 cells/100 μl in each well (Falcon, MicroTest™ 96) was exposed to Compound 1, uridine or 1 μM paclitaxel (taxol, Sigma) for 72 hours in a complete medium. The Compound 1 and uridine were serially two-fold diluted from the concentration of 0.258 mg/ml.\nCellular viability was estimated by the tetrazolium dye reduction assay (XTT assay, Boehringer Mannheim). The amount of XTT reagent (a tetrazolium salt) added to the bottom wells was 100 μl/well and its concentration was 1 mg/ml. The-wells were incubated for 4 hours to allow viable cells to develop color. Absorbance (O.D.) was measured at 450 nm with the reference wavelength at 690 nm."}, "ES-2 cells": {"system": "ES-2 cells", "assay": "Invasive/metastatic potential of cancer cells, Boyden chemotaxis assay chambers", "assay_type": "cell-based, human", "settings": "18-hour incubation; for IC50: Homo sapiens", "method": "as §1\n(§6) In this method, Boyden chemotaxis assay chambers (Costar Transwell plates) were used. Each Boyden chemotaxis assay chamber included a top chamber having a filter as the bottom side of the top chamber and a bottom well surrounding the top chamber. The bottom side of the top chamber used here was an 8 μm-pore polycarbonate filter.\n0.35 ml of a medium with complete nutrition supplements as a chemo-attractant was added to each bottom well. Cancer cells (2×10^5 in 50 μl) were then plated on the filters in each of the top chambers. Compound 1 or uridine was diluted in the serum-free medium to 0.536 mg/ml and then was added to the top chambers, with the volume of 50 μl/chamber. The control tests were performed with 2 μM paclitaxel (positive control) or with medium only (negative control) in the top chambers.\nAfter an 18-hour incubation, the cells in the top chambers were carefully emptied with sterile cotton buds. 100 μl XTT reagent (1 mg/ml) was added to each of the bottom wells. After incubating for 4 hours, absorbance (O.D.) was measured at 450 nm with the reference wavelength at 690 nm. The ratio of the OD from the bottom wells to that of the OD from the bottom wells of the control tests was taken as the invasive potential. Results presented are from three different independent experiments."}, "MMP-2": {"target": "T1, MMP-2 (Homo sapiens, UniProt P08253)", "T1 construct": "The purified enzyme was already an active form with a molecular weight of about 64K; endogenous in cells; host or cells: ES-2 human ovarian carcinoma cells (secreted into serum-free conditioned medium; purified on gelatin-Sepharose 4B)", "T1 sequence (P08253 110-660)": "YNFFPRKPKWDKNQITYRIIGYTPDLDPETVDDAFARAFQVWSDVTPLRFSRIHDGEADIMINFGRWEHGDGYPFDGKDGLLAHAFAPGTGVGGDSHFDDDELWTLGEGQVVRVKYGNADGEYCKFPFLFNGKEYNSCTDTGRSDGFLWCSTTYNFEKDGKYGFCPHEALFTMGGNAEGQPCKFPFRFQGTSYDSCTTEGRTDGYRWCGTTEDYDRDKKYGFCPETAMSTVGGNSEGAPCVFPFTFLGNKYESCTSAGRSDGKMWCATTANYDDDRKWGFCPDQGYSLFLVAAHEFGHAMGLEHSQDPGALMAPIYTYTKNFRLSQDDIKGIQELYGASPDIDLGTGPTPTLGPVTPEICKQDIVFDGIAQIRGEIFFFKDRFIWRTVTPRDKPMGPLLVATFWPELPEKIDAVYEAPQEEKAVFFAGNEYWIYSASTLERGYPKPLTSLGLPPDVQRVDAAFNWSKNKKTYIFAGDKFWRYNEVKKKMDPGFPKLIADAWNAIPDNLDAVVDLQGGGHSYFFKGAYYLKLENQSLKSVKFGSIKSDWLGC", "assay": "Inhibition of MMP-2 gelatinase activity on microtiter plates (biotinylated gelatin hydrolysis)", "assay_type": "biochemical", "method": "The MMP-2 enzyme was obtained from cancer cells and then purified by using gelatin-Sephose 4B (Pharmacia). Serum-free conditioned medium from human ovarian carcinoma cells, ES-2, was concentrated 50-fold and then MMP-2 enzyme was obtained by ultrafiltration using a 30,000 MW (molecular weight) cut-off membrane (YM-30, Amicon). The affinity matrix was equilibrated with an equilibration buffer, which was composed of 50 mM Tris.HCl (pH7.6), 10 mM EDTA and 0.01% Tween 20, containing 0.5 M NaCl. After extensive washing with the equilibration buffer containing 0.5 M NaCl, the bound enzyme was eluted with the equilibration buffer containing 1 M NaCl. […]\nThe plates were then read at 450 nm (reference length 470 nm) in a microtiter plate reader (Dynex, MRX). The absorbance at 450 nm […] as the concentration of MMP-2 […]. […] Therefore, in the reaction of BG with MMP-2, the absorbance should be a factor 3-5 times lower than an absorbance reading of BG without MMP-2 enzyme (a gelatinase). […]\nThe effect of Compound 1 on MMP-2 activity was measured by basically the same procedure as described in the section, GELATINASE ASSAY ON MICROTITER PLATES. As Compound 1 was similar to uridine in chemical structure, the effect of a commercial available uridine (Sigma, U-3750, D-Ribose) on MMP-2 activity was also measured for comparison in the experiment. […]"}, "[2]": {"system": "COLO205, PC-3, A375, A549 cell lines", "assay": "Invasive/metastatic potential of cancer cells, Boyden chemotaxis assay chambers, other four cell lines", "assay_type": "cell-based, human", "settings": "same concentration ranges as ES-2, data not shown", "method": "as §2, §3, §4, §5, §6\n0.35 ml of a medium with complete nutrition supplements as a chemo-attractant was added to each bottom well. Cancer cells (2×10^5 in 50 μl) were then plated on the filters in each of the top chambers. […]\nAfter an 18-hour incubation, the cells in the top chambers were carefully emptied with sterile cotton buds. […] After incubating for 4 hours, absorbance (O.D.) was measured at 450 nm with the reference wavelength at 690 nm. […]"}, "TNFα binding to TNFα-RI": {"target": "TNFα binding to TNFα-RI (Homo sapiens, UniProt P01375+P19438)", "sequence (P01375 77-233 limits assumed)": "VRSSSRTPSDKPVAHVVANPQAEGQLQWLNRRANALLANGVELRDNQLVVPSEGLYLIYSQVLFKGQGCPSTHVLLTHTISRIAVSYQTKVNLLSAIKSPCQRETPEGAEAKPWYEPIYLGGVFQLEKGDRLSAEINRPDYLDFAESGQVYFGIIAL", "sequence (P19438 22-211 limits assumed)": "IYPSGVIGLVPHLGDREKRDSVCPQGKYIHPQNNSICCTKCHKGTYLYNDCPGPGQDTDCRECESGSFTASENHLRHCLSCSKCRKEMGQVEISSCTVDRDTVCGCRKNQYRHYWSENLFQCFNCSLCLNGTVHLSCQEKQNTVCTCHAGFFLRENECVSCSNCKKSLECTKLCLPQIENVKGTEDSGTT", "assay": "Inhibition of binding of biotinylated TNFα to TNFα-RI on coated microtiter plate", "method": "50 μl TNFα-RI at a concentration of 0.25 μg/ml was coated onto each well of a 96-well C-bottom microtiter plate (Nunc) in a 50 mM carbonate buffer (pH 9.5) at 4° C. overnight. The plate was washed 3 times with 200 μl TBST solution composed of 50 mM Tris.HCl (pH 7.35) containing 0.15 M NaCl and 0.05% Tween 20 to remove excess TNFα-RI. 200 μl/well of 0.5% BSA in PBS was added to each plate for blocking of the TNFα-RI. The reaction was carried out at 37° C. for 2 hours followed by washing 4 times with TBST to remove excess BSA.\nCompound 1 was serially diluted in TBST solution. Biotinylated TNFα with a concentration of 0.5 μg/ml was mixed with Compound 1 solution in a volume ratio of 1:1. The reaction was allowed to proceed for 30 minutes at 37° C. with shaking at 500 rpm for allowing mixing. The mixtures were then added to the TNFα-RI coated plate, 50 μl for each well. The plate was then incubated at 37° C. for 2 hours with shaking again at 500 rpm, for competitive binding of the biotinylated TNFα and Compound 1.\nFollowed by washing 4 times with TBST, Extravidin-alkaline phosphatase (Sigma) diluted in TBST (1/5,000) was added to the plate, 50 μl/well. The plate was further incubated at 37° C. for 2 hours and then washed 4 times with TBST. […] After a 30-minute incubation at room temperature, absorbance at the wavelength of 405 nm was measured. […]"}}, "note": "Like-named read-outs stand apart in the source and are kept apart here."}
{"compound": "O=c1ccn([C@@H]2O[C@H](CO)[C@@H](O)[C@H]2O)c(=O)[nH]1", "note": "[uridine, reference compound]", "values": [{"measurement": "cellular viability (XTT assay)", "setting": "[1]", "result": "did not reduce cellular viability"}, {"measurement": "effect on invasive potential", "setting": "ES-2 cells; data not shown", "result": "did not show any effect"}, {"measurement": "inhibitory activity to MMP-2", "setting": "MMP-2; at the concentration of 0.82 mM, data not shown", "result": "no inhibitory activity"}, {"measurement": "effect on invasive potential", "setting": "[2]", "result": "did not show any effect"}]}
{"compound": "CC(=O)O[C@H]1C(=O)[C@@]2(C)[C@H]([C@H](OC(=O)c3ccccc3)[C@]3(O)C[C@H](OC(=O)[C@H](O)[C@@H](NC(=O)c4ccccc4)c4ccccc4)C(C)=C1C3(C)C)[C@]1(OC(C)=O)CO[C@@H]1C[C@@H]2O", "note": "[paclitaxel]", "values": [{"measurement": "inhibition of cell proliferation (XTT assay)", "setting": "[1]; paclitaxel positive control", "result": "inhibition of cell proliferation was proportional to the concentration of paclitaxel"}]}
{"compound": "O=c1ccn(C2OC(CCO)C(O)C2O)c(=O)[nH]1", "note": "(stereo not drawn) [Compound 1, 1-[3,4-dihydroxy-5-(2-hydroxyethyl)tetrahydrofuran-2-yl]pyrimidine-2,4(1H,3H)-dione]", "values": [{"measurement": "cellular viability (XTT assay)", "setting": "[1]", "result": "did not reduce cellular viability"}, {"measurement": "inhibition activity on TNFα binding to TNFα-RI compared with Suramin", "setting": "TNFα binding to TNFα-RI; FIG. 6, Suramin as comparative compound", "result": "smaller than that of Suramin"}, {"measurement": "IC50", "setting": "TNFα binding to TNFα-RI; biotinylated TNFα 0.5 μg/ml mixed 1:1 with compound, TNFα-RI coated plate, read-out: 50% inhibitory dose (IC50) on TNFα binding to TNFα-RI", "result": 50, "unit": "µM"}, {"measurement": "IC50", "setting": "ES-2 cells; XTT readout of bottom wells, read-out: 50% inhibitory dose (IC50) on invasive potential", "result": 23, "unit": "µg/mL"}, {"measurement": "IC50", "setting": "ES-2 cells; printed conversion of 23 μg/ml, read-out: 50% inhibitory dose (IC50) on invasive potential, converted to molar", "result": 90, "unit": "µM"}, {"measurement": "IC50", "setting": "MMP-2; purified MMP-2 from ES-2 conditioned medium, biotinylated gelatin substrate, read-out: 50% inhibitory dose (IC50) on MMP-2 activity", "result": 150, "unit": "µM"}, {"measurement": "effect on invasive potential", "setting": "[2]", "result": "not significantly affected"}]}
